Data from patent US12617779B2, “Self degradation-type CDK9 inhibitor prodrug and liposome encapsulating same” (Sumitomo Pharma Co., Ltd., priority 2021, dated 2026).

Experiments:
[1] = Evaluation of conversion rate to active form in buffer solution (Experimental Example 1); assay type: physicochemical; conditions: for Production rate of Alvocidib / Residual rate: 37° C., 25 umol/L in buffer solution; for Stability in buffer solution at pH 5: pH 5, 37° C., up to 2 or 3 hours; for Conversion to Alvocidib at pH 7.4: pH 7.4, 37° C., up to 3 hours
Outline: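 Stability across pH: 25 umol/L, 37° C, 50 mM citrate/phosphate, pH 5.0–7.4. Sampling at 0, 0.5, 1, 2, 3 h; HPLC determined loss of compound and Alvocidib generated.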

[2] = Pharmacokinetic test, intravenous solution and liposome formulations in mice (Experimental Example 6); assay type: in vivo; conditions: female BALB/c mice
Experimental: This was used as a solution formulation.
This was used as a liposome formulation.
Hydrogenated soybean phosphatidylcholine (COATSOME NC-21E, manufactured by NOF CORPORATION, 3.238 g), cholesterol (manufactured by Sigma, 1.160 g) and 1,2-disteroyl-rac-glycero-3-methylpolyoxyethylen 2000 (SUNBRIGHT GS-020, manufactured by NOF CORPORATION, 0.983 g) were dissolved in tert-butyl alcohol (300 mL) warmed to 65° C. The solution was placed in an eggplant flask and frozen in a dry ice-acetone bath, and then the tert-butyl alcohol was removed by evaporation under reduced pressure to give a lipid mixture.
To the above lipid mixture was added to a 250 mM ammonium sulfate solution (100 mL), and the mixture was warmed to 65° C., and dispersed by a homogenizer (ULTRA-TURRAX, manufactured by IKA) to give a crude liposome dispersion. […] The solution was filtered through a 0.22 μm membrane filter to adjust the total lipid concentration to 75 mM (75 μmol/mL). […] The solution was adjusted to pH 5 to 6 with 1 mol/L aqueous sodium hydroxide solution, warmed in a 65° C. water bath for 3 minutes, and ice-cooled. The liposome outer solution was replaced with 10 mM tartrate buffer solution/10% sucrose solution (pH 4) using a dialysis cassette (Slide-A-Lyzer G2 Dialysis Cassettes 20K MWCO, manufactured by Thermo Scientific), followed by filtration through a 0.22 μm membrane filter to adjust the concentration.
The solution formulation or liposome formulation was instantly administered intravenously to 7-week-old female BALB/c mice, and the blood was collected over time from the jugular vein without anesthesia up to 24 hours after administration for the solution formulation administration group and up to 72 hours after administration for the liposome formulation administration group. […] The plasma sample was centrifuged, and the concentrations of the test compound and Alvocidib in the obtained supernatant were determined by LC-MS/MS.

CCN(C[C@H]1CCCCN1)C(=O)Oc1cc(O)c2c(=O)cc(-c3ccccc3Cl)oc2c1[C@H]1CCN(C)C[C@H]1O [Example 2, 2-(2-chlorophenyl)-5-hydroxy-8-[(3S,4R)-3-hydroxy-1-methylpiperidin-4-yl]-4-oxo-4H-1-benzopyran-7-yl ethyl{[(2R)-piperidin-2-yl]methyl}carbamate]
Production rate of Alvocidib ([1]; pH5.0, 0 hr): 0.0%
Residual rate ([1]; pH5.0, 0 hr): 95.5%
Stability in buffer solution at pH 5 [1]: stable
Production rate of Alvocidib ([1]; pH5.0, 0.5 hr): 0.3%
Residual rate ([1]; pH5.0, 0.5 hr): 95.4%
Production rate of Alvocidib ([1]; pH5.0, 1 hr): 0.5%
Residual rate ([1]; pH5.0, 1 hr): 95.1%
Production rate of Alvocidib ([1]; pH5.0, 2 hr): 1.1%
Residual rate ([1]; pH5.0, 2 hr): 94.7%
Production rate of Alvocidib ([1]; pH5.0, 3 hr): 1.6%
Residual rate ([1]; pH5.0, 3 hr): 94.1%
Production rate of Alvocidib ([1]; pH5.5, 0 hr): 0.0%
Residual rate ([1]; pH5.5, 0 hr): 95.8%
Production rate of Alvocidib ([1]; pH5.5, 0.5 hr): 0.8%
Residual rate ([1]; pH5.5, 0.5 hr): 95.1%
Production rate of Alvocidib ([1]; pH5.5, 1 hr): 1.7%
Residual rate ([1]; pH5.5, 1 hr): 94.3%
Production rate of Alvocidib ([1]; pH5.5, 2 hr): 3.2%
Residual rate ([1]; pH5.5, 2 hr): 92.5%
Production rate of Alvocidib ([1]; pH5.5, 3 hr): 5.3%
Residual rate ([1]; pH5.5, 3 hr): 90.4%
Production rate of Alvocidib ([1]; pH6.0, 0 hr): 0.0%
Residual rate ([1]; pH6.0, 0 hr): 95.5%
Production rate of Alvocidib ([1]; pH6.0, 0.5 hr): 2.9%
Residual rate ([1]; pH6.0, 0.5 hr): 93.0%
Production rate of Alvocidib ([1]; pH6.0, 1 hr): 5.7%
Residual rate ([1]; pH6.0, 1 hr): 89.6%
Production rate of Alvocidib ([1]; pH6.0, 2 hr): 11.1%
Residual rate ([1]; pH6.0, 2 hr): 81.0%
Production rate of Alvocidib ([1]; pH6.0, 3 hr): 15.7%
Residual rate ([1]; pH6.0, 3 hr): 74.5%
Production rate of Alvocidib ([1]; pH6.5, 0 hr): 0.0%
Residual rate ([1]; pH6.5, 0 hr): 95.9%
Production rate of Alvocidib ([1]; pH6.5, 0.5 hr): 7.9%
Residual rate ([1]; pH6.5, 0.5 hr): 87.4%
Production rate of Alvocidib ([1]; pH6.5, 1 hr): 15.1%
Residual rate ([1]; pH6.5, 1 hr): 75.4%
Production rate of Alvocidib ([1]; pH6.5, 2 hr): 27.2%
Residual rate ([1]; pH6.5, 2 hr): 57.4%
Production rate of Alvocidib ([1]; pH6.5, 3 hr): 36.1%
Residual rate ([1]; pH6.5, 3 hr): 45.1%
Production rate of Alvocidib ([1]; pH7.0, 0 hr): 0.0%
Residual rate ([1]; pH7.0, 0 hr): 95.4%
Production rate of Alvocidib ([1]; pH7.0, 0.5 hr): 21.0%
Residual rate ([1]; pH7.0, 0.5 hr): 66.7%
Production rate of Alvocidib ([1]; pH7.0, 1 hr): 38.0%
Residual rate ([1]; pH7.0, 1 hr): 44.8%
Production rate of Alvocidib ([1]; pH7.0, 2 hr): 53.4%
Residual rate ([1]; pH7.0, 2 hr): 19.9%
Production rate of Alvocidib ([1]; pH7.0, 3 hr): 60.8%
Residual rate ([1]; pH7.0, 3 hr): 9.8%
Production rate of Alvocidib ([1]; pH7.4, 0 hr): 0.2%
Residual rate ([1]; pH7.4, 0 hr): 95.4%
Conversion to Alvocidib at pH 7.4 [1]: rapidly converted to Alvocidib
Production rate of Alvocidib ([1]; pH7.4, 0.5 hr): 38.7%
Residual rate ([1]; pH7.4, 0.5 hr): 41.7%
Production rate of Alvocidib ([1]; pH7.4, 1 hr): 56.4%
Residual rate ([1]; pH7.4, 1 hr): 17.1%
Production rate of Alvocidib ([1]; pH7.4, 2 hr): 66.0%
Residual rate ([1]; pH7.4, 2 hr): 3.5%
Production rate of Alvocidib ([1]; pH7.4, 3 hr): 67.6%
Residual rate ([1]; pH7.4, 3 hr): 1.5%
Blood retention of liposome formulation compared with the corresponding solution formulation [2]: higher blood retention

CN1CC[C@H](c2c(OC(=O)N(C)C[C@@H]3CCCCN3)cc(O)c3c(=O)cc(-c4ccccc4Cl)oc23)[C@H](O)C1 [Example 3, 2-(2-chlorophenyl)-5-hydroxy-8-[(3S,4R)-3-hydroxy-1-methylpiperidin-4-yl]-4-oxo-4H-1-benzopyran-7-yl methyl{[(2S)-piperidin-2-yl]methyl}carbamate]
Production rate of Alvocidib ([1]; pH5.0, 0 hr): 0.2%
Residual rate ([1]; pH5.0, 0 hr): 99.8%
Stability in buffer solution at pH 5 [1]: stable
Production rate of Alvocidib ([1]; pH5.0, 0.5 hr): 0.9%
Residual rate ([1]; pH5.0, 0.5 hr): 99.1%
Production rate of Alvocidib ([1]; pH5.0, 1 hr): 1.3%
Residual rate ([1]; pH5.0, 1 hr): 98.7%
Production rate of Alvocidib ([1]; pH5.0, 2 hr): 2.2%
Residual rate ([1]; pH5.0, 2 hr): 97.8%
Production rate of Alvocidib ([1]; pH5.0, 3 hr): 3.1%
Residual rate ([1]; pH5.0, 3 hr): 96.9%
Production rate of Alvocidib ([1]; pH5.5, 0 hr): 0.3%
Residual rate ([1]; pH5.5, 0 hr): 99.7%
Production rate of Alvocidib ([1]; pH5.5, 0.5 hr): 1.8%
Residual rate ([1]; pH5.5, 0.5 hr): 98.2%
Production rate of Alvocidib ([1]; pH5.5, 1 hr): 2.7%
Residual rate ([1]; pH5.5, 1 hr): 97.3%
Production rate of Alvocidib ([1]; pH5.5, 2 hr): 4.7%
Residual rate ([1]; pH5.5, 2 hr): 95.3%
Production rate of Alvocidib ([1]; pH5.5, 3 hr): 6.5%
Residual rate ([1]; pH5.5, 3 hr): 93.5%
Production rate of Alvocidib ([1]; pH6.0, 0 hr): 0.3%
Residual rate ([1]; pH6.0, 0 hr): 99.7%
Production rate of Alvocidib ([1]; pH6.0, 0.5 hr): 4.5%
Residual rate ([1]; pH6.0, 0.5 hr): 95.5%
Production rate of Alvocidib ([1]; pH6.0, 1 hr): 7.6%
Residual rate ([1]; pH6.0, 1 hr): 92.2%
Production rate of Alvocidib ([1]; pH6.0, 2 hr): 14.1%
Residual rate ([1]; pH6.0, 2 hr): 85.3%
Production rate of Alvocidib ([1]; pH6.0, 3 hr): 19.8%
Residual rate ([1]; pH6.0, 3 hr): 79.4%
Production rate of Alvocidib ([1]; pH6.5, 0 hr): 0.3%
Residual rate ([1]; pH6.5, 0 hr): 99.7%
Production rate of Alvocidib ([1]; pH6.5, 0.5 hr): 10.6%
Residual rate ([1]; pH6.5, 0.5 hr): 88.9%
Production rate of Alvocidib ([1]; pH6.5, 1 hr): 18.3%
Residual rate ([1]; pH6.5, 1 hr): 80.9%
Production rate of Alvocidib ([1]; pH6.5, 2 hr): 33.5%
Residual rate ([1]; pH6.5, 2 hr): 65.3%
Production rate of Alvocidib ([1]; pH6.5, 3 hr): 44.6%
Residual rate ([1]; pH6.5, 3 hr): 53.9%
Production rate of Alvocidib ([1]; pH7.0, 0 hr): 0.6%
Residual rate ([1]; pH7.0, 0 hr): 99.4%
Production rate of Alvocidib ([1]; pH7.0, 0.5 hr): 26.8%
Residual rate ([1]; pH7.0, 0.5 hr): 72.2%
Production rate of Alvocidib ([1]; pH7.0, 1 hr): 43.2%
Residual rate ([1]; pH7.0, 1 hr): 55.3%
Production rate of Alvocidib ([1]; pH7.0, 2 hr): 65.2%
Residual rate ([1]; pH7.0, 2 hr): 20.2%
Production rate of Alvocidib ([1]; pH7.0, 3 hr): 74.5%
Residual rate ([1]; pH7.0, 3 hr): 8.0%
Production rate of Alvocidib ([1]; pH7.4, 0 hr): 0.9%
Residual rate ([1]; pH7.4, 0 hr): 99.1%
Conversion to Alvocidib at pH 7.4 [1]: rapidly converted to Alvocidib
Production rate of Alvocidib ([1]; pH7.4, 0.5 hr): 49.0%
Residual rate ([1]; pH7.4, 0.5 hr): 49.4%
Production rate of Alvocidib ([1]; pH7.4, 1 hr): 67.8%
Residual rate ([1]; pH7.4, 1 hr): 17.0%
Production rate of Alvocidib ([1]; pH7.4, 2 hr): 80.4%
Residual rate ([1]; pH7.4, 2 hr): 0.0%
Production rate of Alvocidib ([1]; pH7.4, 3 hr): 82.5%
Residual rate ([1]; pH7.4, 3 hr): 0.0%
Blood retention of liposome formulation compared with the corresponding solution formulation [2]: higher blood retention
